Experimental data as given in the supplement of paper PMC10307832.

Experiments:
GSK-J4 = compound: CCOC(=O)CCNc1cc(N2CCc3ccccc3CC2)nc(-c2ccccn2)n1 [GSK-J4]; assay: relative viability (nuclei count vs DMSO), 5 days (fraction); higher = more cells survive
How it was run: (§1)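 Nuclei counted with MetaXpress define viability as the ratio of treated to vehicle wells, given as a median across plates. The lung cancer cell lines were in 1536-well plates, pinned with five √10-spaced library-drug doses and imaged at 4× after 5 days and Hoechst staining. Plates passed with control CV below 25% and at least one doubling.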

AZ3146 = compound: CN1CCC(CC1)OC2=CC(=C(C=C2)NC3=NC=C4C(=N3)N(C(=O)N4C)C5CCCC5)OC [AZ3146]; assay: as above
How it was run: as §1

| Cell Line | relative viability (GSK-J4; 0.5 µM) | relative viability (GSK-J4; 1.581 µM) | relative viability (GSK-J4; 5 µM) | relative viability (GSK-J4; 15.81 µM) | relative viability (GSK-J4; 50 µM) | relative viability (AZ3146; 0.08 µM) | relative viability (AZ3146; 0.253 µM) | relative viability (AZ3146; 0.8 µM) | relative viability (AZ3146; 2.53 µM) | relative viability (AZ3146; 8 µM) |
| --- | --- | --- | --- | --- | --- | --- | --- | --- | --- | --- |
| NCI-H1755 | 0.969 | 0.847 | 0.728 | 0.929 | 0.916 | 0.933 | 1.02 | 0.955 | 0.994 | 0.984 |
| NCI-H1792 | 0.932 | 0.606 | 0.925 | 0.697 | 0.832 | 0.759 | 0.776 | 0.93 | 0.841 | 0.905 |
| NCI-H1793 | 1.06 | 0.786 | 0.727 | 0.48 | 0.443 | 0.902 | 0.805 | 0.812 | 1.07 | 0.691 |
| NCI-H1915 | 0.924 | 0.856 |  | 0.969 | 1.12 | 0.9 | 1.04 | 1.07 | 1.03 | 0.991 |
| NCI-H1944 | 0.939 | 0.874 | 0.828 | 0.734 | 0.931 | 0.777 | 0.919 | 1.07 | 1.03 | 0.982 |
| NCI-H1975 | 0.972 | 0.857 |  | 0.953 | 1.09 | 0.859 | 0.993 | 1.06 | 1.02 | 0.844 |
| NCI-H1993 | 1.13 | 1.09 | 1.08 | 0.756 | 0.533 | 0.926 | 0.843 | 1 | 1.03 | 0.489 |
| NCI-H2009 | 0.951 | 0.89 | 0.733 | 0.966 | 0.545 | 0.928 | 0.997 | 1.03 | 1.02 | 0.713 |
| NCI-H2023 | 0.942 | 0.853 | 1.07 | 0.906 | 0.856 | 0.935 | 0.912 | 0.969 | 0.871 | 0.296 |
| NCI-H2085 | 1.02 | 0.953 | 0.884 | 0.924 | 0.955 | 1 | 0.987 | 0.972 | 0.97 | 0.992 |
| NCI-H2087 | 0.96 | 0.824 | 0.82 | 1.04 | 0.856 | 0.877 | 1.08 | 1.03 | 1.2 | 0.917 |
| NCI-H2126 | 0.973 | 0.944 | 1.02 | 0.906 | 0.83 | 0.972 | 1 | 0.99 | 1.06 | 0.919 |
| NCI-H2170 | 1 | 0.89 | 0.893 | 0.916 | 0.969 | 0.959 | 0.991 | 0.994 | 1.01 | 0.96 |
| NCI-H2228 | 0.904 | 1.04 | 1.15 | 0.997 | 0.948 | 1.04 | 0.973 | 1.1 | 0.995 | 0.933 |
| NCI-H2342 | 0.919 | 1.06 | 0.925 | 1.03 | 1.07 | 0.902 | 0.937 | 1.11 | 0.875 | 0.928 |
| NCI-H2347 | 0.984 | 0.879 | 0.886 | 0.952 | 0.849 | 0.997 | 1.03 | 0.913 | 1.1 | 1.07 |
| NCI-H2405 | 1.07 | 0.945 |  | 0.943 | 0.987 | 1.08 | 0.87 | 0.999 | 1.12 | 1.11 |
| NCI-H3122 | 0.941 | 0.904 | 0.955 | 1.05 | 1.02 | 0.979 | 1 | 1.02 | 0.984 | 0.991 |
| PC-3 [JPC-3] | 1.01 | 1.03 | 0.953 | 0.95 | 0.955 | 0.907 | 0.97 | 1.01 | 1.05 | 0.979 |
| PC-14 | 1.02 | 0.916 | 0.769 | 0.985 | 1.01 | 0.958 | 0.967 | 1.02 | 1.04 | 0.784 |
| RERF-LC-KJ | 0.887 | 0.853 | 0.943 | 0.908 | 0.826 | 0.944 | 1.01 | 0.974 | 1.05 | 0.716 |
| SK-LU-1 | 0.947 | 0.865 | 0.826 | 0.838 | 0.704 | 0.944 | 1.07 | 1 | 1.08 | 0.936 |
| SK-MES-1 | 0.965 | 0.937 | 0.932 | 0.928 | 0.783 | 1 | 0.985 | 1.07 | 0.991 | 0.95 |
| SW 900 | 0.803 | 0.794 | 0.842 | 0.863 | 0.64 | 0.77 | 0.669 | 0.751 | 1.01 | 0.686 |
| SW 1573 | 0.926 | 0.96 | 0.851 | 0.949 | 0.756 | 0.994 | 1.04 | 0.991 | 0.959 | 0.68 |
